Test results published in patent publication US12384741B2, “Lipid nanoparticle compositions for delivering circular polynucleotides” (Orna Therapeutics, Inc., priority 2021, dated 2025).

Tests used:
[1] = test system: T cells, myeloid cells, B cells, and NK cells; assay: mOX40L expression in splenic immune cells (flow cytometry); format: in vivo, C57BL/6 mice; conditions: LNP 50:10:38.5:1.5, IL:P 5.7, 1 mg/kg intravenously, 24 hours; vs Lipid 15 of Table 10f
Procedure: The ionizable lipid: helper lipid: cholesterol: PEG-lipid molar ratio of these LNPs was 50:10:38.5:1.5. Dialysis of the LNPs were performed using PBS. C57BL/6 female mice (6-8 weeks, n=4) were dosed at either LNP comprising Lipid 1 of Table 10e or the Lipid 15 of Table 10f at 1 mg/kg intravenously. At 24 hours, the spleen from the mice were collected for flow cytometry analysis. mOX40L transfection of Lipid 1 of Table 10e and Lipid 15 of Table 10f were compared in T cells, myeloid cells, B cells, and NK cells.

[2] = test system: splenic T cells; assay: mOX40L expression in splenic T cells; format: in vivo, C57BL/6 mice; conditions: 1 mg/kg intravenously, 24 hours; IL:P 5.7, 50:10:38.5:1.5
Procedure: The ionizable lipid: helper lipid: cholesterol: PEG-lipid molar ratio of these LNPs was 50:10:38.5:1.5. C57BL/6 female mice (6-8 weeks, n=4) were dosed at 1 mg/kg intravenously. At 24 hours, the spleen from the mice were collected for flow cytometry analysis, tested for weight loss and measured for serum alanine aminotransferase (ALT) after blood collection. mOX40L expression was measured in splenic T cells.

## CCCCCCCCCCCCC(O)CN(CCCO)CCCCCCCC(=O)OC(CCCCCCCC)CCCCCCCC (centres unmarked) [Lipid 1 of Table 10e, heptadecan-9-yl 8-((3-hydroxypropyl)(2-hydroxytetradecyl)amino)octanoate]
[1]
  mOX40L transfection in splenic immune cells: comparable or higher levels of mOX40L transfection
[2]
  mOX40L expression in splenic T cells: resulted in expression of mOX40L in splenic T cells
